{"source": "patent US8399462B2", "about": "“JNK modulators” (Roche Palo Alto LLC, priority 2006, dated 2013)", "data": [{"units": {"melting point": "°C"}, "values": [{"smiles": "CC(O)c1cccc2c1ccn2-c1ccnc(N[C@H]2CC[C@H](NS(=O)(=O)N(C)C)CC2)n1", "note": "(stereo partly drawn) [Compound 137, N-(N′,N′-dimethylsulfonamido) N-{4-[4-(1-hydroxyethyl)-indol-1-yl-pyrimidin-2-yl-amino]-cyclohexyl} amine]", "melting point": "> 300"}, {"smiles": "CS(=O)(=O)CCOCc1cccc2c1ccn2-c1ccnc(N[C@H]2CC[C@H](O)CC2)n1", "note": "[Compound 138, 4-{4-[4-(2-methane-sulfonyl-ethoxymethyl)-indol-1-yl]-pyrimidin-2-ylamino}-cyclohexanol]", "melting point": "119.5 to 121"}, {"smiles": "CC(=O)N[C@H]1CC[C@H](Nc2nccc(-n3ccc4c(COCCS(C)(=O)=O)cccc43)n2)CC1", "note": "[Compound 139, N-(4-{4-[4-(2-methane-sulfonyl-ethoxymethyl)-indol-1-yl]-pyrimidin-2-ylamino}-cyclohexyl)-acetamide]", "melting point": "208.5 to 209.7"}, {"smiles": "COCCOCc1cccc2c1ccn2-c1ccnc(N[C@H]2CC[C@H](NC(C)=O)CC2)n1", "note": "[Compound 140, N-(4-{4-[4-(2-methoxy-ethoxymethyl)-indol-1-yl]-pyrimidin-2-ylamino}-cyclohexyl)-acetamide]", "melting point": "177 to 177.8"}, {"smiles": "CS(=O)(=O)N[C@H]1CC[C@H](Nc2nccc(-n3ncc4c(OCCO)cccc43)n2)CC1", "note": "[Compound 141, N-(4-{4-[4-(2-hydroxy-ethoxy)-indazol-1-yl]-pyrimidin-2-ylamino}-cyclohexyl)-methane-sulfonamide]", "melting point": "268.1 to 269.1"}, {"smiles": "CCCOc1cccc2c1cnn2-c1ccnc(N[C@H]2CC[C@H](NS(C)(=O)=O)CC2)n1", "note": "[Compound 142, N-{4-[4-(4-propoxy-indazol-1-yl)-pyrimidin-2-ylamino]-cyclohexyl}-methanesulfonamide]", "melting point": "253 to 254"}, {"smiles": "O=C([C@H]1CC[C@H](Nc2nccc(-n3ncc4c(OCCCO)cccc43)n2)CC1)N1CCCC1", "note": "[Compound 144, (4-{4-[4-(3-hydroxy-propoxy)-indazol-1-yl]-pyrimidin-2-ylamino}-cyclohexyl)-pyrrolidin-1-ylmethanone]", "melting point": "187.5 to 188.5"}, {"smiles": "CN(C)S(=O)(=O)N[C@H]1CC[C@H](Nc2nccc(-n3ncc4c(OCCCO)cccc43)n2)CC1", "note": "[Compound 145, N-(N′,N′-dimethylsulfonamido) N-(4-{4-[4-(3-hydroxy-propoxy)-indazol-1-yl]-pyrimidin-2-ylamino}-cyclohexyl) amine]", "melting point": "248 to 250"}, {"smiles": "CN(C)C(=O)[C@H]1CC[C@H](Nc2nccc(-n3ncc4c(OCc5ccccn5)cccc43)n2)CC1", "note": "[Compound 150, 4-{4-[4-(pyridine-2-yl-methoxy)-indazol-1-yl]-pyrimidin-2-ylamino}-cyclohexanecarboxylic acid dimethylamide]", "melting point": "217.3 to 219"}, {"smiles": "O=C([C@H]1CC[C@H](Nc2nccc(-n3ncc4c(OCCO)cccc43)n2)CC1)N1CCCC1", "note": "[Compound 151, (4-{4-[4-(2-hydroxy-ethoxy)-indazol-1-yl]-pyrimidin-2-ylamino}-cyclohexyl)-pyrrolidin-1-ylmethanone]", "melting point": "164 to 166"}, {"smiles": "CC(=O)N[C@H]1CC[C@H](Nc2nccc(-n3ncc4c(OCCCO)cccc43)n2)CC1", "note": "[Compound 152, N-(4-{4-[4-(3-hydroxy-propoxy)-indazol-1-yl]-pyrimidin-2ylamino}-cyclohexyl)-acetamide]", "melting point": "226 to 228"}, {"smiles": "CS(=O)(=O)CCCOc1cccc2c1cnn2-c1ccnc(N[C@H]2CC[C@H](C(=O)N3CCCC3)CC2)n1", "note": "[Compound 155, (4-{4-[4-(3-methane-sulfonyl-propoxy)-indazol-1-yl]-pyrimidin-2-ylamino}-cyclohexyl)-pyrrolidin-1-ylmethanone]", "melting point": "183.4 to 184.5"}, {"smiles": "CS(=O)(=O)CCCOc1cccc2c1cnn2-c1ccnc(N[C@H]2CC[C@H](NS(C)(=O)=O)CC2)n1", "note": "[Compound 156, N-(4-{4-[4-(3-methane-sulfonyl-propoxy)-indazol-1-yl]-pyrimidin-2-ylamino}-cyclohexyl)-methanesulfonamide]", "melting point": "247 to 248"}, {"smiles": "CN([C@H]1CC[C@H](Nc2nccc(-n3ncc4c(OCCCS(C)(=O)=O)cccc43)n2)CC1)S(C)(=O)=O", "note": "[Compound 158, N-(4-{4-[4-(3-methane-sulfonyl-propoxy)-indazol-1-yl]-pyrimidin-2-ylamino}-cyclohexyl)-N-methyl-methane-sulfonamide]", "melting point": "208.8 to 209.6"}, {"smiles": "COCCOCc1cccc2c1ccn2-c1ccnc(N[C@H]2CC[C@H](N(C)S(C)(=O)=O)CC2)n1", "note": "[Compound 160, N-(4-{4-[4-(2-methoxy-ethoxymethyl)-indol-1-yl]-pyrimidin-2-ylamino}-cyclohexyl)-N-methyl-methane-sulfonamide]", "melting point": "154 to 156.5"}, {"smiles": "CN([C@H]1CC[C@H](Nc2nccc(-n3ccc4c(C(C)(C)O)cccc43)n2)CC1)S(C)(=O)=O", "note": "[Compound 161, N-(4-{4-[4-(1-hydroxy-1-methyl-ethyl)-indol-1-yl]-pyrimidin-2-yl-amino}-cyclohexyl)-N-methyl-methane-sulfonamide]", "melting point": "149 to 150"}, {"smiles": "CN([C@H]1CC[C@H](Nc2nccc(-n3ccc4c(CC#N)cccc43)n2)CC1)S(C)(=O)=O", "note": "[Compound 163, N-{4-[4-(4-cyano-methyl-indol-1-yl)-pyrimidin-2-ylamino]-cyclohexyl}-N-methyl-methanesulfonamide]", "melting point": "187.8 to 189"}, {"smiles": "CN(c1cccc2c1ccn2-c1ccnc(N[C@H]2CC[C@H](C(C)(C)O)CC2)n1)S(C)(=O)=O", "note": "[Compound 164, N-(1-{2-[4-(1-hydroxy-1-methyl-ethyl)-cyclo-hexylamino]-pyrimidin-4-yl}-1H-indol-4-yl)-N-methyl-methanesulfonamide]", "melting point": "216.5 to 217.5"}, {"smiles": "CC(C)Oc1cccc2c1cnn2-c1ccnc(N[C@H]2CC[C@H](O)CC2)n1", "note": "[Compound 167, 4-[4-(4-isopropoxy-indazol-1-yl)-pyrimidin-2-ylamino]-cyclohexanol]", "melting point": "188.2 to 189.2"}, {"smiles": "CCCCOc1cccc2c1cnn2-c1ccnc(N[C@H]2CC[C@H](O)CC2)n1", "note": "[Compound 168, 4-[4-(4-butoxy-indazol-1-yl)-pyrimidin-2-yl-amino]-cyclohexanol]", "melting point": "195 to 196"}, {"smiles": "CC(C)COc1cccc2c1cnn2-c1ccnc(N[C@H]2CC[C@H](O)CC2)n1", "note": "[Compound 169, 4-[4-(4-isobutoxy-indazol-1-yl)-pyrimidin-2-ylamino]-cyclohexanol]", "melting point": "189.3 to 190.3"}, {"smiles": "COC(=O)N[C@H]1CC[C@H](Nc2nccc(-n3ncc4c(OCCCS(C)(=O)=O)cccc43)n2)CC1", "note": "[Compound 170, (4-{4-[4-(3-methane-sulfonyl-propoxy)-indazol-1-yl]-pyrimidin-2-ylamino}-cyclohexyl)-carbamic acid methyl ester]", "melting point": "226.8 to 227.3"}, {"smiles": "CN([C@H]1CC[C@H](Nc2nccc(-n3ccc4c(C(C)(C)C#N)cccc43)n2)CC1)S(C)(=O)=O", "note": "[Compound 173, N-(4-{4-[4-(2-cyano-prop-2-yl)-indol-1-yl]-pyrimidin-2-ylamino}-cyclohexyl)-N-methyl-methanesulfonamide]", "melting point": "189 to 190"}, {"smiles": "CC(C#N)c1cccc2c1ccn2-c1ccnc(N[C@H]2CC[C@H](N(C)S(C)(=O)=O)CC2)n1", "note": "(stereo partly drawn) [Compound 174, N-(4-{4-[4-(1-cyano-ethyl)-indol-1-yl]-pyrimidin-2-ylamino}-cyclohexyl)-N-methyl-methanesulfonamide]", "melting point": "196 to 197"}, {"smiles": "CC(=O)N[C@H]1CC[C@H](Nc2nccc(-n3ccc4c(C(C)C#N)cccc43)n2)CC1", "note": "(stereo partly drawn) [Compound 175, N-(4-{4-[4-(1-cyano-ethyl)-indol-1-yl]-pyrimidin-2-ylamino}-cyclohexyl)-acetamide]", "melting point": "244 to 245"}, {"smiles": "CC(=O)N[C@H]1CC[C@H](Nc2nccc(-n3ccc4c(C(C)(C)C#N)cccc43)n2)CC1", "note": "[Compound 176, N-(4-{4-[4-(2-cyano-prop-2-yl)-indol-1-yl]-pyrimidin-2-ylamino}-cyclohexyl)-acetamide]", "melting point": "238 to 239"}, {"smiles": "CN([C@H]1CC[C@H](Nc2nccc(-n3ncc4c(OCCCO)cccc43)n2)CC1)S(C)(=O)=O", "note": "[Compound 178, N-(4-{4-[4-(3-hydroxy-propoxy)indazole-1-yl]-pyrmidin-2-ylamino}-cyclohexyl)-N-methyl-methanesulfonamide]", "melting point": "208.4 to 209"}, {"smiles": "CC(C)(O)c1cccc2c1ccn2-c1ccnc(N[C@H]2CC[C@H](N3CCCS3(=O)=O)CC2)n1", "note": "[Compound 179, 2-(1-{2-[4-(1,1-dioxo-isothiazolidin-2yl)-cyclohexylamino}-pyrimidin-4-yl}-1H-indol-4-yl)-propan-2-ol]", "melting point": "206.9 to 207.6"}, {"smiles": "CC(C)(C)OC(=O)N[C@H]1CC[C@H](Nc2nccc(-n3ccc4c(OCCCS(C)(=O)=O)cccc43)n2)CC1", "note": "[Compound 181, (4-{4-[4-(3-methane-sulfonyl-propoxy)-indol-1-yl]-pyrimidin-2-ylamino}-cyclohexyl)-carbamic acid t-butyl ester]", "melting point": "227.5 to 228.5"}, {"smiles": "CN(C)S(=O)(=O)N[C@H]1CC[C@H](Nc2nccc(-n3ccc4c(C5(O)CCOCC5)cccc43)n2)CC1", "note": "[Compound 182, N-(4-{4-[4-(4-hydroxy-tetrahydropyran-4-yl)-indol-1-yl]-pyrimidin-2-ylamino}-cyclohexyl)-(N′,N′-dimethylamino)-sulfonamide]", "melting point": "> 300"}, {"smiles": "CC(C)(O)[C@H]1CC[C@H](Nc2nccc(-n3ncc4c(OCCCO)cccc43)n2)CC1", "note": "[Compound 183, 3-(1-{2-[4-(2-hydroxy-prop-2-yl)-cyclohexyl-amino]-pyrimidin-4-yl}-1H-indazol-4-yloxy)-propan-1-ol]", "melting point": "229.5 to 231"}, {"smiles": "CS(=O)(=O)CCCOc1cccc2c1cnn2-c1ccnc(N[C@H]2CC[C@H](C(=O)N3CCC(O)CC3)CC2)n1", "note": "[Compound 184, (4-hydroxy-piperidin-1-yl)-(4-{4-[4-(3-methane-sulfonyl-propoxy)-indazol-1-yl]-pyrimidin-2-ylamino}-cyclohexyl)-methanone]", "melting point": "143 to 145"}, {"smiles": "CN([C@H]1CC[C@H](Nc2nccc(-n3ccc4c(CNS(C)(=O)=O)cccc43)n2)CC1)S(C)(=O)=O", "note": "[Compound 188, N-(4-{4-[4-(methane-sulfonylamino-methyl)-indol-1-yl]-pyrimidin-2-ylamino}-cyclohexyl)-N-methyl-methane-sulfonamide]", "melting point": "226.5 to 228"}]}]}
